Data as given in patent publication US20220322673A1, “Novel Agrochemical Combinations” (UPL LIMITED, priority 2019, published 2022).
Read-outs that look alike come from different tables or passages of the source.

Tests used:
Type in all cases: in vivo
[1] = test system: Okra Mites; experiment: Trials on controlling Okra Mites post 2nd and 3rd application (Example 2); details: doses gm/ha: OSA 625 + Flonicamid 50 / Acetamipirid 50 / Lancer Gold 650, solo OSA 1250, Flonicamid 75, Acetamipirid 50, Lancer gold 650; for Percent control Mean: Mean of B07, C-01, C-10
Procedure: Trials were conducted to test the efficacy of the combination of Flonicamid and Orthosilicic acid on controlling Okra Mites at different dosages post 2nd and 3rd application.

[2] = test system: Okra Aphids (Aphis gossypii); details: for Percent control (%) of Okra Aphids, Nymphs + Adults, A01: A01 = 1 day after first spray; for Percent control (%) of Okra Aphids, Nymphs + Adults, A10: A10 (after 1st spray); for Percent control (%) of Okra Aphids, Nymphs + Adults, B03: B03 = 3 days after 2nd spray; for Percent control (%) of Okra Aphids, Nymphs + Adults, B07: B07 (after 2nd spray); for Percent control (%) of Okra Aphids, Nymphs + Adults, B10: B10 (after 2nd spray); for Percent control (%) of Okra Aphids, Nymphs + Adults, C03: C03 = 3 days after third spray; for Percent control (%) of Okra Aphids, Nymphs + Adults, C10: C10 (after third spray)
From the text: (§1) In this evaluation, feeding damage & insect population on Okra Leaves before and after sprays is averaged and analyzed for the test of significance. Application method: Three applications (application A, B and C) within an interval of 14 days.

[3] = test system: Okra Jassids (Amrasca bigutulla bigutulla); details: for Percent control (%) of Okra Jassids, Nymphs + Adults, A01: A01 = 1 day after first spray; for Percent control (%) of Okra Jassids, Nymphs + Adults, A10: A10 (after 1st spray); for Percent control (%) of Okra Jassids, Nymphs + Adults, B03: B03 = 3 days after 2nd spray; for Percent control (%) of Okra Jassids, Nymphs + Adults, B07: B07 (after 2nd spray); for Percent control (%) of Okra Jassids, Nymphs + Adults, B10: B10 (after 2nd spray); for Percent control (%) of Okra Jassids, Nymphs + Adults, B14: B14 (after 2nd spray); for Percent control (%) of Okra Jassids, Nymphs + Adults, C03: C03 = 3 days after third spray; for Percent control (%) of Okra Jassids, Nymphs + Adults, C10: C10 (after third spray)
From the text: as §1

[4] = test system: Okra Aphids; experiment: Trials of Flonicamid and Orthosilicic acid on controlling Okra Aphids (Example 1); details: doses gm/ha: OSA + Flonicamid 625 + 50, Flonicamid 75, OSA 1250
Procedure: Trials were conducted to test the efficacy of the combination of Flonicamid and Orthosilicic acid on controlling Okra Aphids at different dosages.

[5] = doses gm a.i./ha: OSA 25, Flonicamid 100, Acephate+Imidacloprid 520, Flonicamid+Fipronil 100+50, Imidacloprid 24.5, Acetamiprid 15
[6] = reduced insecticide dose, gm a.i./ha: OSA 25, Flonicamid (Ulala) 75, Acephate+Imidacloprid 390, Flonicamid+Fipronil 75+37.5, Imidacloprid 18.3, Acetamiprid 11.2
[7] = 25% reduced dose rate, gm a.i./ha: OSA 25, Flonicamid 75, Acephate+Imidacloprid 390, Flonicamid+Fipronil 75+37.5, Imidacloprid 18.3, Acetamiprid 11.2

SMILES	Percent control B07 [1]	Percent control C-01 [1]	Percent control C-10 [1]	Percent control Mean [1]	Percent control (%) of Okra Aphids, Nymphs + Adults, A01 [2, 5]	Percent control (%) of Okra Aphids, Nymphs + Adults, A10 [2, 5]	Percent control (%) of Okra Aphids, Nymphs + Adults, B03 [2, 5]	Percent control (%) of Okra Aphids, Nymphs + Adults, B07 [2, 5]	Percent control (%) of Okra Aphids, Nymphs + Adults, B10 [2, 5]	Percent control (%) of Okra Aphids, Nymphs + Adults, C03 [2, 5]	Percent control (%) of Okra Aphids, Nymphs + Adults, C10 [2, 5]	Percent control (%) of Okra Jassids, Nymphs + Adults, A01 [3, 7]	Percent control (%) of Okra Jassids, Nymphs + Adults, A01 [3, 5]	Percent control (%) of Okra Jassids, Nymphs + Adults, A10 [3, 7]	Percent control (%) of Okra Jassids, Nymphs + Adults, A10 [3, 5]	Percent control (%) of Okra Jassids, Nymphs + Adults, B03 [3, 7]	Percent control (%) of Okra Jassids, Nymphs + Adults, B03 [3, 5]	Percent control (%) of Okra Jassids, Nymphs + Adults, B07 [3, 7]	Percent control (%) of Okra Jassids, Nymphs + Adults, B07 [3, 5]	Percent control (%) of Okra Jassids, Nymphs + Adults, B10 [3, 7]	also measured
C/C(=N\C#N)N(C)Cc1ccc(Cl)nc1 [Acetamipirid, Acetamiprid]	24.6%	26.9%	22.2%	24.56%	71.1%	86.1%	86.8%	86.7%	85%	87.4%	87.6%	59.3%	66.4%	64.4%	72.4%	68.8%	73.9%	70.9%	76.7%	71.3%	Percent control (%) of Okra Aphids, Nymphs + Adults, A01 [2, 6]: 64.8%; Percent control (%) of Okra Aphids, Nymphs + Adults, A14 ([2]; A14 = 14 days after 1st spray, reduced insecticide dose, gm a.i./ha: OSA 25, Flonicamid (Ulala) 75, Acephate+Imidacloprid 390, Flonicamid+Fipronil 75+37.5, Imidacloprid 18.3, Acetamiprid 11.2): 74.7%; Percent control (%) of Okra Aphids, Nymphs + Adults, B03 [2, 6]: 79.7%; Percent control (%) of Okra Aphids, Nymphs + Adults, B07 [2, 6]: 81.8%; Percent control (%) of Okra Aphids, Nymphs + Adults, B10 [2, 6]: 82.5%; Percent control (%) of Okra Aphids, Nymphs + Adults, C03 [2, 6]: 86.9%; Percent control (%) of Okra Aphids, Nymphs + Adults, C10 [2, 6]: 86.5%; Percent control (%) of Okra Jassids, Nymphs + Adults, B10 [3, 5]: 76.9%; Percent control (%) of Okra Jassids, Nymphs + Adults, B14 [3, 7]: 66.6%; Percent control (%) of Okra Jassids, Nymphs + Adults, B14 [3, 5]: 70.9%; Percent control (%) of Okra Jassids, Nymphs + Adults, C03 [3, 7]: 69.5%; Percent control (%) of Okra Jassids, Nymphs + Adults, C03 [3, 5]: 74.8%; Percent control (%) of Okra Jassids, Nymphs + Adults, C10 [3, 7]: 70.7%; Percent control (%) of Okra Jassids, Nymphs + Adults, C10 [3, 5]: 79.3%
N#CCNC(=O)c1cnccc1C(F)(F)F [Flonicamid, N-cyanomethyl-4-trifluoromethylnicotinamide]	31.8%	39.5%	34.0%	35.1%	78.2%	91.9%	95.1%	95.5%	93%	94.7%	94.9%	71.2%	74.8%	85.8%	89.3%	82%	90.7%	89.3%	93.3%	91.5%	Percent control B01 ([4]; B01): 88.8%; Percent control C-01 ([4]; C-01): 91.8%; Percent control C-10 ([4]; C-10): 96%; Percent control Mean ([4]; Mean of B01, C-01, C-10): 92.2%; Percent control (%) of Okra Jassids, Nymphs + Adults, B10 [3, 5]: 94.2%; Percent control (%) of Okra Jassids, Nymphs + Adults, B14 [3, 7]: 87.4%; Percent control (%) of Okra Jassids, Nymphs + Adults, B14 [3, 5]: 89.3%; Percent control (%) of Okra Jassids, Nymphs + Adults, C03 [3, 7]: 90.2%; Percent control (%) of Okra Jassids, Nymphs + Adults, C03 [3, 5]: 93.3%; Percent control (%) of Okra Jassids, Nymphs + Adults, C10 [3, 7]: 92.5%; Percent control (%) of Okra Jassids, Nymphs + Adults, C10 [3, 5]: 94.4%
